In ChEMBL document CHEMBL1152415, “Potent antitumor bifunctional DNA alkylating agents, synthesis and biological activities of 3a-aza-cyclopenta[a]indenes” (Bioorg Med Chem, 2009):
Active and inactive are the calls of the source. The calls are words filed in the database; no cut-off is given here.

Tests used:
[1] = Cell cycle arrest in human H1299 cells assessed as accumulation at G2/M phase at 10 uM after 72 hrs by flow cytometry relative to control; format: functional, cell-based; settings: NCI-H1299
Nucleic Acid [2] = assay: Induction of pEGFP-N1 plasmid DNA interstrand cross-linking at 10 uM after 2 hrs by alkaline agarose gel shift assay; format: nucleic-acid assay
CCRF-CEM [3] = assay: Cross-resistance, IC50 for human taxol-resistant CCRF-CEM cells to IC50 for human CCRF-CEM cells; format: functional
[4] = Cell cycle arrest in human H1299 cells assessed as accumulation at G0/G1 phase at 10 uM after 72 hrs by flow cytometry relative to control; format: functional, cell-based; settings: NCI-H1299
[5] = Cell cycle arrest in human H1299 cells assessed as accumulation at G2/M phase at 10 uM after 48 hrs by flow cytometry relative to control; format: functional, cell-based; settings: NCI-H1299
HCT-116 = assay: Cytotoxicity against human HCT116 cells after 72 hrs by SRB assay; format: functional, cell-based; settings: HCT-116, 72 h
[6] = Cell cycle arrest in human H1299 cells assessed as accumulation at S phase at 10 uM after 72 hrs by flow cytometry relative to control; format: functional, cell-based; settings: NCI-H1299
[7] = Cell cycle arrest in human H1299 cells assessed as accumulation at G2/M phase at 10 uM after 24 hrs by flow cytometry relative to control; format: functional, cell-based; settings: NCI-H1299
[8] = Cell cycle arrest in human H1299 cells assessed as accumulation at subG1 phase at 10 uM after 48 hrs by flow cytometry relative to control; format: functional, cell-based; settings: NCI-H1299
[9] = Cell cycle arrest in human H1299 cells assessed as accumulation at S phase at 10 uM after 24 hrs by flow cytometry relative to control; format: functional, cell-based; settings: NCI-H1299
[10] = Cell cycle arrest in human H1299 cells assessed as accumulation at subG1 phase at 10 uM after 72 hrs by flow cytometry relative to control; format: functional, cell-based; settings: NCI-H1299
[11] = Cell cycle arrest in human H1299 cells assessed as accumulation at G0/G1 phase at 10 uM after 24 hrs by flow cytometry relative to control; format: functional, cell-based; settings: NCI-H1299
Nucleic Acid [12] = assay: Induction of DNA interstrand cross-linking in human H1299 cells at 100 uM under aerobic condition for 1 hr followed by irradiated with 20 Gy of X-ray by modified comet assay relative to irradiated untreated control; format: cell-based
CCRF-CEM [13] = assay: Cytotoxicity against human taxol-resistant CCRF-CEM cells after 72 hrs by XTT assay; format: functional, cell-based
MX1 [14] = assay: Cytotoxicity against human MX1 cells after 72 hrs by SRB assay; format: functional, cell-based; settings: MX1, 72 h
CCRF-CEM [15] = assay: Cytotoxicity against human CCRF-CEM cells after 72 hrs by XTT assay; format: functional, cell-based; settings: read-out: IC50
Nucleic Acid [16] = assay: Induction of pEGFP-N1 plasmid DNA interstrand cross-linking at 1 uM after 2 hrs by alkaline agarose gel shift assay; format: nucleic-acid assay
[17] = Cytotoxicity against human OECM1 cells after 72 hrs by WST-1 assay; format: functional, cell-based; settings: OECM1, 72 h
PC-3 = assay: Cytotoxicity against human PC3 cells after 72 hrs by WST-1 assay; format: functional, cell-based; settings: PC-3, 72 h
Nucleic Acid [18] = assay: Induction of pEGFP-N1 plasmid DNA interstrand cross-linking at 20 uM after 2 hrs by alkaline agarose gel shift assay; format: nucleic-acid assay
[19] = Cell cycle arrest in human H1299 cells assessed as accumulation at S phase at 10 uM after 48 hrs by flow cytometry relative to control; format: functional, cell-based; settings: NCI-H1299
[20] = Cytotoxicity against human U87 cells after 72 hrs by WST-1 assay; format: functional, cell-based, U-87MG ATCC; settings: U-87 MG
[21] = Cytotoxicity against human H1299 cells after 72 hrs by WST-1 assay; format: functional, cell-based; settings: NCI-H1299, 72 h
[22] = Cell cycle arrest in human H1299 cells assessed as accumulation at G0/G1 phase at 10 uM after 48 hrs by flow cytometry relative to control; format: functional, cell-based; settings: NCI-H1299
CCRF-CEM [23] = assay: Cytotoxicity against human vinblastine-resistant CCRF-CEM cells after 72 hrs by XTT assay; format: functional, cell-based
[24] = Cell cycle arrest in human H1299 cells assessed as accumulation at subG1 phase at 10 uM after 24 hrs by flow cytometry relative to control; format: functional, cell-based; settings: NCI-H1299
CCRF-CEM [25] = assay: Cross-resistance, IC50 for human vinblastine-resistant CCRF-CEM cells to IC50 for human CCRF-CEM cells; format: functional
[26] = Toxicity in athymic nu/nu mouse assessed as maximum tolerated dose; format: organism-based; settings: in vivo, read-out: Activity
MX1 [27] = assay: Antitumor activity in human MX1 cells xenografted athymic nu/nu mouse assessed as complete remission of tumor at 15 mg/kg, iv administered daily twice for 4 days; format: functional, organism-based; design: dose 15 mg/kg
MX1 [28] = assay: Antitumor activity in human MX1 cells xenografted athymic nu/nu mouse assessed as complete remission of tumor at 18 mg/kg, iv administered daily twice for 2 days; format: functional, organism-based; design: dose 18 mg/kg
MX1 [29] = assay: Antitumor activity in human MX1 cells xenografted athymic nu/nu mouse assessed as complete remission of tumor at 50 mg/kg, iv administered daily once for 3 days; format: functional, organism-based; design: dose 50 mg/kg
MX1 [30] = assay: Antitumor activity in human MX1 cells xenografted athymic nu/nu mouse assessed as complete remission of tumor at 5 mg/kg, iv administered daily once for 3 days; format: functional, organism-based; design: dose 5 mg/kg
MX1 [31] = assay: Antitumor activity in human MX1 cells xenografted athymic nu/nu mouse assessed as complete remission of tumor at 5 mg/kg, iv administered daily once for 3 days measured after 22 days of tumor implantation; format: functional, organism-based; design: dose 5 mg/kg

Row | Compound | Ratio IC50 (CCRF-CEM [3]) | IC50 (HCT-116) [nM] | IC50 (CCRF-CEM [13]) [nM] | IC50 (MX1 [14]) [nM] | IC50 (CCRF-CEM [15]) [nM] | IC50 [17] [nM] | IC50 (PC-3) [nM] | IC50 [20] [nM] | IC50 [21] [nM] | IC50 (CCRF-CEM [23]) [nM] | Ratio IC50 (CCRF-CEM [25]) | other results
1 | CNC(=O)OCc1c(COC(=O)NC)c(-c2ccc(OC)cc2)n2c1Cc1cc(OC)ccc1-2 | 1 | 440 | 62 | 870 | 62 | 1270 | 22000 | 38300 | 20900 | 98 | 1.6 | Activity [1]: 85.8%; Activity (Nucleic Acid [2]): Active; Activity [4]: 5.06%; Activity [5]: 49.5%; Activity [6]: 9.19%; Activity [7]: 4.15%; Activity [8]: 5.86%; Activity [9]: 51.1%; Activity [10]: 17.2%; Activity [11]: 44.7%; Activity (Nucleic Acid [12]): 97.9%; Activity (Nucleic Acid [16]): Active; Activity (Nucleic Acid [18]): Active; Activity [19]: 25.6%; Activity [22]: 24.9%; Activity [24]: 2.64%
2 | CO[C@@]12[C@H](COC(N)=O)C3=C(C(=O)C(C)=C(N)C3=O)N1C[C@@H]1N[C@@H]12 | – | – | – | – | – | – | – | – | – | – | – | Activity (Nucleic Acid [12]): 76.5%
3 | COc1ccc(-c2c(CO)c(CO)c3n2-c2ccc(OC)cc2C3)cc1 | 0.53 | 670 | 62 | 1500 | 120 | 1540 | 23200 | 24400 | 19000 | 140 | 1.2 | Activity [1]: 73.6%; Activity (Nucleic Acid [2]): Active; Activity [4]: 1.8%; Activity [5]: 41.9%; Activity [6]: 24.6%; Activity [7]: 5.84%; Activity [8]: 3.88%; Activity [9]: 50.5%; Activity [10]: 15.6%; Activity [11]: 43.7%; Activity (Nucleic Acid [12]): 35.5%; Activity (Nucleic Acid [16]): Active; Activity (Nucleic Acid [18]): Active; Activity [19]: 38.9%; Activity [22]: 19.3%; Activity [24]: 1.95%
4 | CNC(=O)OCc1c(COC(=O)NC)c2n(c1C)-c1ccccc1C2 | 0.67 | 300 | 120 | 340 | 120 | 1450 | 27200 | > 50000 | > 50000 | 63 | 0.53 | –
5 | CCc1c(COC(=O)NC)c(COC(=O)NC)c2n1-c1ccccc1C2 | 1.2 | 710 | 80 | 660 | 70 | 11800 | > 50000 | > 50000 | > 50000 | 100 | 1.5 | –
6 | COc1ccc(-c2c(CO)c(CO)c3n2-c2ccccc2C3)cc1OC | 1.1 | 4300 | 1100 | 11000 | 1000 | – | – | – | – | 1900 | 1.8 | –
7 | COc1ccccc1-c1c(CO)c(CO)c2n1-c1ccccc1C2 | 1.9 | 12000 | 1900 | 8700 | 1000 | – | – | – | – | 2700 | 2.6 | –
8 | OCc1c(CO)c(-c2ccc(F)cc2)n2c1Cc1ccccc1-2 | 1.6 | 8700 | 7200 | 22000 | 4500 | – | – | – | – | 11000 | 2.5 | –
9 | COc1ccc(-c2c(CO)c(CO)c3n2-c2ccccc2C3)cc1 | 1.5 | 6100 | 1700 | 11000 | 1200 | 9260 | 55500 | 45500 | 50300 | 1600 | 1.4 | –
10 | OCc1c(CO)c(-c2ccc(Cl)cc2)n2c1Cc1ccccc1-2 | 0.55 | 5700 | 2400 | 6100 | 4300 | – | – | – | – | 4500 | 1 | –
11 | CNC(=O)OCc1c(COC(=O)NC)c(-c2ccc(OC)cc2)n2c1Cc1ccccc1-2 | 1.4 | 2600 | 70 | 1900 | 49 | 4630 | 38200 | 34400 | 42600 | 63 | 1.3 | MTD [26]: 5 mg/kg; Activity (MX1 [27]): Active; Activity (Nucleic Acid [2]): Active; Activity (MX1 [28]): Active; Activity (MX1 [29]): Active; Activity (MX1 [30]): Active; Activity (MX1 [31]): Active; Activity (Nucleic Acid [16]): Active; Activity (Nucleic Acid [18]): Active
12 | CNC(=O)OCc1c(COC(=O)NC)c(-c2ccc(Cl)cc2)n2c1Cc1ccccc1-2 | 0.58 | 8900 | 3300 | 9900 | 5700 | – | – | – | – | 2300 | 0.4 | –
13 | CNC(=O)OCc1c(COC(=O)NC)c(-c2ccc(F)cc2)n2c1Cc1ccccc1-2 | 2.2 | 400 | 300 | 740 | 140 | – | – | – | – | 280 | 2 | –
